Measured values from patent publication US9249185B2, “Peptides for promoting angiogenesis and an use thereof” (INDUSTRY-ACADEMIC COOPERATION FOUNDATION, SOOKMYUNG WOMEN'S …, priority 2010, dated 2016).

Columns and labels:
[1] = tested on: human umbilical vein endothelial cells (HUVECs); test: Proliferation of HUVECs (CyQUANT kit); assay type: cell-based; details: 48 hours with peptide, negative control (untreated) = 100
Procedure: In order to investigate the effect of the 7 peptides prepared in Example 1 on blood vessel formation, human umbilical vein endothelial cells (HUVECs) were treated with the peptide of the present invention and their proliferation was observed.
HUVECs were cultured in endothelial cell basal medium-2 (EBM-2, Clonetics Co., San Diego, USA) containing 2% fetal bovine serum (FBS). The cultured HUVECs were transferred to a 96-well plate, with 1000 cells per each well. After culturing for 24 hours followed by addition of the 7 peptides of the peptide of the present invention to each well, they were further cultured for 48 hours. The cells treated with VEGF instead of the peptide of the present invention and those treated with nothing were cultured under the same condition, as positive control group and negative control group, respectively. Upon completion of the culturing, the degree of cell proliferation was measured using the CyQUANT kit (Invitrogen, USA).

HUVECs = test: Migration of HUVECs through polycarbonate filter chamber; assay type: cell-based, human; details: 37° C. for 10 hours, negative control (untreated) = 100
Procedure: In order to investigate the effect of the 7 peptides prepared in Example 1 on blood vessel formation, migration of HUVECs was measured.
The bottom portion of a chamber of a 24-well plate (Corning Costar, USA) having a polycarbonate filter with pores therebelow was coated with 0.5 mg/mL collagen type 1 ([…]). After adding EBM-2 containing the 7 peptides of the peptide of the present invention to the bottom portion of the chamber, HUVECs were inoculated at the upper portion of the chamber, with 1×10^5 cells per well. After incubation at 37° C. for 10 hours, the cells that had passed through the polycarbonate filter were fixed with methanol, stained with hematoxylin, and counted under a microscope.

Substance | Cell proliferation (%) [1] [%] | Cell migration (%) (HUVECs)
AGES (Pep_1 Artificial Peptide for Promotion of Angiogenesis) | 109.6 | 118.0
AGESQK (Pep_11 Artificial Peptide for Promotion of Angiogenesis) | 146.5 | 202.2
KNAGDS (Pep_3 Artificial Peptide for Promotion of Angiogenesis) | 115.7 | 125.8
KNAGHS (Pep_4 Artificial Peptide for Promotion of Angiogenesis) | 119.6 | 135.5
PKAGES (Pep_2 Artificial Peptide for Promotion of Angiogenesis) | 104.4 | 159.5
RQAGDS (Pep_5 Artificial Peptide for Promotion of Angiogenesis) | 207.5 | 165.4
RQAGHS (Pep_6 Artificial Peptide for Promotion of Angiogenesis) | 138.0 | 138.6
Vascular endothelial growth factor [VEGF] | 166.0 | 146.3
